Measurements from publication PMC11845761, “Intestinal human carboxylesterase 2 (CES2) expression rescues drug metabolism and most metabolic syndrome phenotypes in global Ces2 cluster knockout mice” (Acta Pharmacologica Sinica, 2024).
Marks after values point to notes of the source that are not given here.

Experiments:
[1] = Tissue concentrations of capecitabine and its metabolites 2 h after oral capecitabine in CES2-modified mice; format: in vivo, mouse; conditions: oral capecitabine 500 mg/kg
Procedure: (§1) For capecitabine 2-h experiments, 6–7 female mice received oral capecitabine (500 mg/kg, 10 μL/g), and tail vein blood samples were collected at 0.125, 0.25, 0.5 and 1 h after drug administration. For the vinorelbine 4-h experiment, 6-7 male mice received vinorelbine intravenously (10 mg/kg, 5 μL/g) or orally (10 mg/kg, 10 μL/g) using a blunt-ended needle. Tail vein blood samples were collected at 0.125, 0.25, 0.5, 1 and 2 h after drug administration. […] At the last time point in each experiment (2 or 4 h), mice were anesthetized with 5% isoflurane and blood was collected by cardiac puncture. […] Plasma was isolated from the blood by centrifugation at 9000 × g for 6 min at 4 °C, and the plasma fraction was collected and stored at −30 °C until analysis.
(§2) Concentrations of capecitabine (and its metabolites) and vinorelbine (and its metabolite) in mouse plasma samples and organ homogenates were determined using two independent validated high-performance liquid chromatography-tandem mass spectrometry assays.
(§3) Pharmacokinetic parameters were calculated by non-compartmental methods using the PK solver software. […] Differences were considered statistically significant when P < 0.05. All data are presented as mean ± SD.

[2] = Plasma pharmacokinetics of capecitabine and its metabolites after oral capecitabine in CES2-modified mice; format: in vivo, mouse; conditions: oral capecitabine 500 mg/kg, plasma
Procedure: as §1, §2, §3

## C[C@H]1O[C@@H](n2cc(F)c(=O)[nH]c2=O)[C@H](O)[C@@H]1O [5’-DFUR]
[1]; female Ces2^–/– mice
  CSI (small intestine tissue concentration): 5099 ± 1783 ng/g
  CSIC (small intestine contents concentration): 3905 ± 2357 ng/g
  Ccolon (colon concentration): 4754 ± 3040 ng/g
  Cliver (liver concentration): 3447 ± 1643 ng/g
  Colon concentration ratio (metabolite/capecitabine): 0.34 ± 0.06
  Liver concentration ratio (metabolite/capecitabine): 0.21 ± 0.09
  Small intestine concentration ratio (metabolite/capecitabine): 0.32 ± 0.13
  Small intestine contents concentration ratio (metabolite/capecitabine): 0.036 ± 0.016
[1]; female Ces2^–/–A mice
  CSI (small intestine tissue concentration): 4632 ± 1545 ng/g
  CSIC (small intestine contents concentration): 2689 ± 1092 ng/g
  Ccolon (colon concentration): 3692 ± 793 ng/g
  Cliver (liver concentration): 2628 ± 793 ng/g
  Colon concentration ratio (metabolite/capecitabine): 0.42 ± 0.06
  Liver concentration ratio (metabolite/capecitabine): 0.66 ± 0.37
  Small intestine concentration ratio (metabolite/capecitabine): 0.33 ± 0.12
  Small intestine contents concentration ratio (metabolite/capecitabine): 0.035 ± 0.025
[1]; female Ces2^–/–V mice
  CSI (small intestine tissue concentration): 3194 ± 1571 ng/g
  CSIC (small intestine contents concentration): 2248 ± 905 ng/g
  Ccolon (colon concentration): 5426 ± 27021.6 ng/g
  Cliver (liver concentration): 2635 ± 1118 ng/g
  Colon concentration ratio (metabolite/capecitabine): 1.2 ± 0.5^###^^^
  Liver concentration ratio (metabolite/capecitabine): 0.44 ± 0.12
  Small intestine concentration ratio (metabolite/capecitabine): 1.50 ± 0.56^###^^^
  Small intestine contents concentration ratio (metabolite/capecitabine): 0.060 ± 0.024
[1]; female wild-type mice
  CSI (small intestine tissue concentration): 2119 ± 460 ng/g
  CSIC (small intestine contents concentration): 1759 ± 941 ng/g
  Ccolon (colon concentration): 2694 ± 755 ng/g
  Cliver (liver concentration): 1750 ± 637 ng/g
  Colon concentration ratio (metabolite/capecitabine): 1.2 ± 0.3
  Liver concentration ratio (metabolite/capecitabine): 1.60 ± 0.96
  Small intestine concentration ratio (metabolite/capecitabine): 1.50 ± 0.62
  Small intestine contents concentration ratio (metabolite/capecitabine): 0.077 ± 0.032
[2]; female Ces2^–/– mice
  AUC0-2h: 30434 ± 12950 ng·h/mL
  AUC0-2h ratio (metabolite/capecitabine): 1.0 ± 0.9
  Cmax: 22886 ± 11936 ng/mL
  Tmax: 38.4 ± 14.4 min
[2]; female Ces2^–/–A mice
  AUC0-2h: 29452 ± 10370 ng·h/mL
  AUC0-2h ratio (metabolite/capecitabine): 1.1 ± 0.3
  Cmax: 21100 ± 8366 ng/mL
  Tmax: 34.8 ± 12 min
[2]; female Ces2^–/–V mice
  AUC0-2h: 34477 ± 13143 ng·h/mL
  AUC0-2h ratio (metabolite/capecitabine): 2.1 ± 0.4***^###^^^
  Cmax: 23871 ± 8673 ng/mL
  Tmax: 47.4 ± 16.2 min
[2]; female wild-type mice
  AUC0-2h: 27337 ± 6291 ng·h/mL
  AUC0-2h ratio (metabolite/capecitabine): 4.7 ± 0.9
  Cmax: 21133 ± 7207 ng/mL
  Tmax: 25.2 ± 7.8 min
